The target in test [1] is smooth muscle angiotensin II receptor. Kind of test: Assay A: Angiotensin II Binding Activity (displacement of 125I-AII, rat uterine membrane preparation). Conditions: rat uterine membranes, 25 °C, 60 min; read-out: IC50 (50% displacement of total specifically bound 125I-AII). As to the method: Assay A: Anaiotensin II Binding Activity
Compounds of the invention were tested for ability to bind to the smooth muscle angiotensin II receptor using a rat uterine membrane preparation. Angiotensin II (AII) was purchased from Peninsula Labs. ^125 I-angiotensin II (specific activity of 2200 Ci/mmol) was purchased from Du Pont-New England Nuclear. Other chemicals were obtained from Sigma Chemical Co. This assay was carried out according to the method of Douglas et al [Endocrinology, 106, 120-124 (1980)]. Rat uterine membranes were prepared from fresh tissue. All procedures were carried out at 4° C. Uteri were stripped of fat and homogenized in phosphate-buffered saline at pH 7.4 containing 5 mM EDTA. The homogenate was centrifuged at 1500×g for 20 min., and the supernatant was recentrifuged at 100,000×g for 60 min. The pellet was resuspended in buffer consisting of 2 mM EDTA and 50 mM Tris-HCl (pH 7.5) to a final protein concentration of 4 mg/ml. Assay tubes were charged with 0.25 ml of a solution containing 5 mM MgCl2, 2 mM EDTA, 0.5% bovine serum albumin, 50 mM Tris-HCl, pH 7.5 and ^125 I-AII (approximately 10^5 cpm) in the absence or in the presence of unlabelled ligand. The reaction was initiated by the addition of membrane protein and the mixture was incubated at 25° C. for 60 min. The incubation was terminated with ice-cold 50 mM Tris-HDl (pH 7.5) and the mixture was filtered to separate membrane-bound labelled peptide from the free ligand. The incubation tube and filter were washed with ice-cold buffer. Filters were assayed for radioactivity in a Micromedic gamma counter. Nonspecific binding was defined as binding in the presence of 10 μM of unlabelled AII. Specific binding was calculated as total binding minus nonspecific binding. The receptor binding affinity of an AII antagonist compound was indicated by the concentration (IC50) of the tested AII antagonist which gives 50% displacement of the total specifically bound ^125 I-AII from the high affinity AII receptor. Binding data were analyzed by a nonlinear least-squares curve fitting program.
In general terms: Loss of bound radioactivity is the signal in a displacement assay; it reports binding, not function.

The target of the next test is T1, rabbit aortic rings (Oryctolagus cuniculus, UniProt P34976).
T1 construct: The thoracic aorta was removed, cleaned of adherent fat and connective tissue; from tissue; host or cells: thoracic aorta rings, endothelium removed, male New Zealand white rabbit
T1 sequence (P34976 1-359): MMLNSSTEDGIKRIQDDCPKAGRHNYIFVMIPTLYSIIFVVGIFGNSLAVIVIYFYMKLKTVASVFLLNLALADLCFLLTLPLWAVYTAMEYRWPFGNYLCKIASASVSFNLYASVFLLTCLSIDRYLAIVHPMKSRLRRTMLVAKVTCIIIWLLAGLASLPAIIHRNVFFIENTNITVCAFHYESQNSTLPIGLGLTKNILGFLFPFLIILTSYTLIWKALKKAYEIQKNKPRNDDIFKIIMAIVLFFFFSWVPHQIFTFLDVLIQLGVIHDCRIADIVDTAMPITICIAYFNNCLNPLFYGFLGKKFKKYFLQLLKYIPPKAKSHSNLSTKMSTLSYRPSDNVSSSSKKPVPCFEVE
As to the kind of experiment: Assay B: In Vitro Vascular Smooth Muscle-Response for AII (antagonist activity in rabbit aortic rings). Type of test: cell-based, rabbit (male New Zealand white). Conditions: antagonist 10^-5 M for 5 min, AII challenge. As to the method: Assay B: In Vitro Vascular Smooth Muscle-Response for AII The compounds of the invention were tested for antagonist activity in rabbit aortic rings. Male New Zealand white rabbits (2-2.5 kg) were sacrificed using an overdose of pentobarbital and exsanguinated via the carotid arteries. The thoracic aorta was removed, cleaned of adherent fat and connective tissue and then cut into 3-mm ring segments. The endothelium was removed from the rings by gently sliding a rolled-up piece of filter paper into the vessel lumen. The rings were then mounted in a water-jacketed tissue bath, maintained at 37° C., between moveable and fixed ends of a stainless steel wire with the moveable end attached to an FT03 Grass transducer coupled to a Model 7D Grass Polygraph for recording isometric force responses. The bath was filled with 20 ml of oxygenated (95% oxygen/5% carbon dioxide) Krebs solution of the following composition (mM): 130 NaCl, 15 NaHCO3, 15 KCl, 1.2 NaH2 PO4, 1.2 MgSO4, 2.5 CaCl2, and 11.4 glucose. The preparations were equilibrated for one hour before approximately one gram of passive tension was placed on the rings. Angiotensin II concentration-response curves were then recorded (3×10^-10 to 1×10^-5 M). Each concentration of AII was allowed to elicit its maximal contraction, and then AII was washed out repeatedly for 30 minutes before rechallenging with a higher concentration of AII. Aorta rings were exposed to the test antagonist at 10^-5 M for 5 minutes before challenging with AII. Adjacent segments of the same aorta ring were used for all concentration-response curves in the presence or absence of the test antagonist. The effectiveness of the test compound was expressed in terms of pA2 values and were calculated according to H.O. Schild [Br. J. Pharmacol. Chemother., 2, 189-206 (1947)]. The pA2 value is the concentration of the antagonist which increases the EC50 value for AII by a factor of two. Each test antagonist was evaluated in aorta rings from two rabbits.

The mark [2] stands for this setting: first of two rabbits, read-out: pA2 (first value) (converted).
[3] abbreviates: second of two rabbits, read-out: pA2 (converted).

The pIC50 is −log10 of the IC50, conventionally taken in molar units.

pIC50: −log10 of the molar value. Like-named read-outs stand apart in the source and are kept apart here.

For the molecule `CCCCc1nc(-c2ccccc2OC)nn1Cc1ccc(-c2ccccc2-c2nnn[nH]2)nc1` [Example 27, 5-[2-[5-[[3-(2-methoxyphenyl)-5-butyl-1H-1,2,4-triazol-1-yl)methyl]-2-pyridinyl]phenyl]-1H-tetrazole], in test [1], the pIC50 is 6.96.

Consider `CCCCc1nc(CCCC)n(Cc2ccc(-c3cnccc3-c3nnn[nH]3)cc2)n1` [Example 6, 5-[3-[4-[(3,5-dibutyl-1H-1,2,4-triazol-1-yl)methyl]phenyl]-4-pyridinyl]-1H-tetrazole], for which, in test [1], the pIC50 is 6.82. Further, the Kb at rabbit aortic rings (setting [2]) and at rabbit aortic rings (setting [3]) was 67.6 nM throughout.

As for `CCCCc1nc(-c2ccccc2)n(Cc2ccc(-c3ccccc3-c3nnn[nH]3)nc2)n1` [Example 22, 5-[2-[5-[(3-butyl-5-phenyl-1H-1,2,4-triazol-1-yl)methyl]-2-pyridinyl]phenyl]-1H-tetrazole], the pIC50 in test [1] is 6.66.

Turning to `CCCCc1nc(CCCC)n(Cc2ccc(-c3ccncc3-c3nnn[nH]3)cc2)n1` [Example 5, 5-[4-[4-[(3,5-dibutyl-1H-1,2,4-triazol-1-yl)methyl]phenyl]-3-pyridinyl]-1H-tetrazole], the negative logarithm of the IC50 (pIC50) in test [1] was 6.60.

`CCCc1nc(CCC)n(Cc2ccc(-c3ccccc3-c3nnn[nH]3)nc2)n1` [Example 8, 5-[2-[5-[(3,5-dipropyl-1H-1,2,4triazol-1-yl)methyl]-2-pyridinyl]phenyl]-1H-tetrazole]: in test [1], the pIC50 is 7.14. Besides, the Kb at rabbit aortic rings (setting [2]) is 34.7 nM; on rabbit aortic rings (setting [3]), 25.7 nM.

For `CCCCc1nc(C(=O)NC)nn1Cc1ccc(-c2ccccc2-c2nnn[nH]2)nc1` [Example 19, 5-[2-[5-[[3-(N-methylamido)-5-butyl-1H-1,2,4-triazol-1-yl)methyl]-2-pyridinyl]phenyl]-1H-tetrazole], the pIC50 in test [1] is 6.80. In addition, the Kb is 234 nM at rabbit aortic rings (setting [2]) and 209 nM at rabbit aortic rings (setting [3]).

Turning to `CCCCc1nc(-c2c(F)cccc2F)nn1Cc1ccc(-c2ccccc2-c2nnn[nH]2)nc1` [Example 31, 5-[2-[5-[[3-(2,6-difluorophenyl)-5-butyl-1H-1,2,4-triazol-1-yl)methyl]-2-pyridinyl]phenyl]-1H-tetrazole], in test [1], the pIC50 is 8.01.

`CCCCc1nc(CCCC)n(Cc2ccc(-c3cccnc3-c3nnn[nH]3)cc2)n1` [Example 4, 5-[3-[4-[(3,5-dibutyl-1H-1,2,4-triazol-1-yl)methyl]phenyl]-2-pyridinyl]-1H-tetrazole]: the pIC50 in test [1] was 6.96. Moreover, the Kb is 77.6 nM at rabbit aortic rings (setting [2]) and 251 nM at rabbit aortic rings (setting [3]).

With `CCCCc1nc(-c2c(F)cccc2F)n(Cc2ccc(-c3ccccc3-c3nnn[nH]3)nc2)n1` [Example 32, 5-[2-[5-[[3-butyl-5-(2,6-difluorophenyl)-1H-1,2,4-triazol-1-yl)methyl]-2-pyridinyl]phenyl]-1H-tetrazole], the pIC50 in test [1] was 7.68.

For `CCCCc1nc(C(=O)NC)n(Cc2ccc(-c3ccccc3-c3nnn[nH]3)nc2)n1` [Example 20, 5-[2-[5-[[3-butyl-5-(N-methylamido)-1H-1,2,4-triazol-1-yl)methyl]-2-pyridinyl]phenyl]-1H-tetrazole], the negative logarithm of the IC50 (pIC50) in test [1] was 6.46. Moreover, the Kb on rabbit aortic rings (setting [2]) and at rabbit aortic rings (setting [3]) was 145 nM in each case.

Regarding `CCCCc1nc(CCCC)n(Cc2ccc(-c3ccccc3C(=O)O)nc2)n1` [Example 2, 2-[5-[(3,5-dibutyl-1H-1,2,4-triazol-1-yl)methyl]-2-pyridinyl]benzoic acid], in test [1], the pIC50 is 6.92.

Take `CCCCc1nc(CCc2ccccc2)nn1Cc1ccc(-c2ccccc2-c2nnn[nH]2)nc1` [Example 15, 5-[2-[5-[[3-(2-phenylethyl)-5-butyl-1H-1,2,4-triazol-1-yl)methyl]-2-pyridinyl]phenyl]-1H-tetrazole]: in test [1], the pIC50 was 8.59.

As for `CCCCc1nc(CCCC)n(Cc2ccc(-c3ncccc3-c3nnn[nH]3)cc2)n1` [Example 7, 5-[2-[4-[(3,5-dibutyl-1H-1,2,4-triazol-1-yl)methyl]phenyl]-3-pyridinyl]-1H-tetrazole], the pIC50 in test [1] was 7.01. The Kb at rabbit aortic rings (setting [2]) was 229 nM; at rabbit aortic rings (setting [3]), 91.2 nM.

In the case of `CCCCc1nc(-c2ccccc2OC)n(Cc2ccc(-c3ccccc3-c3nnn[nH]3)nc2)n1` [Example 28, 5-[2-[5-[[3-butyl-5-(2-methoxyphenyl)-1H-1,2,4-triazol-1-yl)methyl]-2-pyridinyl]phenyl]-1H-tetrazole], the pIC50 in test [1] was 6.54.

For the molecule `CCCCc1nc(-c2ccccc2C)nn1Cc1ccc(-c2ccccc2-c2nnn[nH]2)nc1` [Example 23, 5-[2-[5-[[3-(2-methylphenyl)-5-butyl-1H-1,2,4-triazol-1-yl)methyl]-2-pyridinyl]phenyl]-1H-tetrazole], the pIC50 in test [1] was 7.74.

Regarding `CCCCc1nc(CC(CC)CC)nn1Cc1ccc(-c2ccccc2-c2nnn[nH]2)nc1` [Example 13, 5-[2-[5-[[3-(2-ethylbutyl)-5-butyl-1H-1,2,4-triazol-1-yl)methyl]-2-pyridinyl]phenyl]-1H-tetrazole], the pIC50 in test [1] is 7.60.

In the case of `CCCCc1nc(CC(CC)CC)n(Cc2ccc(-c3ccccc3-c3nnn[nH]3)nc2)n1` [Example 14, 5-[2-[5-[[3-butyl-5-(2-ethylbutyl)-1H-1,2,4-triazol-1-yl)methyl]-2-pyridinyl]phenyl]-1H-tetrazole], the pIC50 in test [1] was 7.89.

Consider `CCCCc1nc(-c2ccccc2C(C)C)n(Cc2ccc(-c3ccccc3-c3nnn[nH]3)nc2)n1` [Example 26, 5-[2-[5-[[3-butyl-5-(2-isopropylphenyl)-1H-1,2,4-triazol-1-yl)methyl]-2-pyridinyl]phenyl]-1H-tetrazole], for which, in test [1], the pIC50 was 7.96.

Take `CCCCc1nc(CCc2ccccc2)n(Cc2ccc(-c3ccccc3-c3nnn[nH]3)nc2)n1` [Example 16, 5-[2-[5-[[3-butyl-5-(2-phenylethyl)-1H-1,2,4-triazol-1-yl)methyl]-2-pyridinyl]phenyl]-1H-tetrazole]: the pIC50 in test [1] was 7.14.

With `CCCCc1nc(-c2ccccc2C)n(Cc2ccc(-c3ccccc3-c3nnn[nH]3)nc2)n1` [Example 24, 5-[2-[5-[[3-butyl-5-(2-methylphenyl)-1H-1,2,4-triazol-1-yl)methyl]-2-pyridinyl]phenyl]-1H-tetrazole], in test [1], the pIC50 is 6.28. For the same molecule, the Kb on rabbit aortic rings (setting [3]) is 603 nM.

Regarding `CCCCc1nc(-c2ccccc2C(C)C)nn1Cc1ccc(-c2ccccc2-c2nnn[nH]2)nc1` [Example 25, 5-[2-[5-[[3-(2-isopropylphenyl)-5-butyl-1H-1,2,4-triazol-1-yl)methyl]-2-pyridinyl]phenyl]-1H-tetrazole], the pIC50 in test [1] was 7.24.

For the molecule `CCCCc1nc(-c2ccccc2)nn1Cc1ccc(-c2ccccc2-c2nnn[nH]2)nc1` [Example 21, 5-[2-[5-[(3-phenyl-5-butyl-1H-1,2,4-triazol-1-yl)methyl]-2-pyridinyl]phenyl]-1H-tetrazole], the pIC50 in test [1] was 7.27.

These data come from patent US5602153A, “Method of using 1-arylheteroarylalkyl substituted-1H-1,2,4-triazole compounds for treatment of a giaucoma disorder” (G.D. Searle & Co., priority 1993, dated 1997).
